Experimental data from US11649218B2, “C-Abl tyrosine kinase inhibitory compound embodiments and methods of making and using the same” (The USA, as represented by the Secretary, Dept. of Health …, priority 2018, dated 2023).

test system: Leukemia K562 cell; test: Leukemia K562 cell proliferation/viability assay (CellTiterGlo, 48 hours); type: cell-based; design: unit not given here; details: K562 cells
Description: C-Abl is encoded by the ABL1 gene (NCBI Gene ID NO. 25). […] Assays for determining if a small molecule inhibits c-Abl activity are known. Non-limiting examples include cell proliferation assays using cancer cells that are BCR-Abl positive and depend on BCR-Abl for growth, such as the leukemia cell line K562. […] In some embodiments described herein, compounds are tested for ability to reduce K562 cell proliferation in an HTS adapted assay which measures cell viability using the reagent CellTiterGlo after 48 hours treatment.

Compound | Efficacy
O=C1Nc2cc(OC(F)(F)F)ccc2Oc2ccc(-c3cccnc3)cc21 [NCGC00371308, 2-(Pyridin-3-yl)-8-(trifluoromethoxy)dibenzo[b,f][1,4]oxazepin-11(10H)-one] | −7.0
O=C1Nc2cc(OC(F)(F)F)ccc2Oc2ccc(-c3ccncc3)cc21 [NCGC00371309, 2-(Pyridin-4-yl)-8-(trifluoromethoxyl)dibenzo[b,f][1,4]oxazepin-11(10H)-one] | −77.6
O=C1Nc2cc(OC(F)(F)F)ccc2Oc2ccc(-c3cncnc3)cc21 [NCGC00371310, 2-(Pyrimidin-5-yl)-8-(trifluoromethoxy)dibenzo[b,f][1,4]oxazepin-11(10H)-one] | −15.0
NS(=O)(=O)c1cccc(-c2ccc3c(c2)C(=O)Nc2cc(OC(F)(F)F)ccc2O3)c1 [NCGC00371364, 3-(11-Oxo-8-(trifluoromethoxy)-10,11-dihydrodibenzo[b,f][1,4]oxazepin-2-yl)benzenesulfonamide] | −94.9
CS(=O)(=O)Nc1cccc(-c2ccc3c(c2)CNc2cc(OC(F)(F)F)ccc2O3)c1 [NCGC00371644, N-(3-(8-(Trifluoromethoxy)-10,11-dihydrodibenzo[b,f][1,4]oxazepin-2-yl)phenyl)methanesulfonamide] | −90.7
CN(C)S(=O)(=O)c1cccc(-c2ccc3c(c2)C(=O)Nc2cc(OC(F)(F)F)ccc2O3)c1 [NCGC00373057, N,N-Dimethyl-3-(11-oxo-8-(trifluoromethoxy)-10. I1-dihydrodibenzo[b,f][1,4]oxazepin-2-yl)benzenesulfonamide] | −85.1
O=C1Nc2cc(OC(F)(F)F)ccc2Oc2ccc(-c3ccc4[nH]ncc4c3)cc21 [NCGC00373058, 2-(1H-Indazol-5-yl)-8-(trifluoromethoxy)dibenzo[b,f][1,4]oxazepin-11(10H)-one] | −74.3
O=C1Nc2cc(OC(F)(F)F)ccc2Oc2ccc(-c3ccnc4[nH]ccc34)cc21 [NCGC00373059, 2-(1H-Pyrrolo[2,3-b]pyridin-4-yl)-8-(trifluoromethoxy)dibenzo[b,f][1.4]oxazepin-11(10H)-one] | −52.9
Nc1cc(-c2ccc3c(c2)C(=O)Nc2cc(OC(F)(F)F)ccc2O3)ccn1 [NCGC00373061, 2-(2-Aminopyridin-4-yl)-8-(trifluoromethoxy)dibenzo[b,f][1,4]oxazepin-11(10H)-one] | −87.0
COc1ccc(-c2ccc3c(c2)C(=O)Nc2cc(OC(F)(F)F)ccc2O3)cc1O [NCGC00373062, 2-(3-Hydroxy-4-methoxyphenyl)-8-(trifluoromethoxy)dibenzo[b,f][1,4]oxazepin-11(10H)-one] | −93.7
CN1CCN(c2cc(-c3ccc4c(c3)C(=O)Nc3cc(OC(F)(F)F)ccc3O4)ccn2)CC1 [NCGC00373063, 2-(2-(4-Methylpiperazin-1-yl)pyridin-4-yl)-8-(trifluoromethoxy)dibenzo[b,f][1,4]oxazepin-11(10H)-one] | −107.9
O=C1Nc2cc(OC(F)(F)F)ccc2Oc2ccc(-c3cccc(S(=O)(=O)NCCO)c3)cc21 [NCGC00373064, N-(2-Hydroxyethyl)-3-(11-oxo-8-(trifluoromethoxy)-10,11-dihydrodibenzo[b,f][1,4]oxazepin-2-yl)benzenesulfonamide] | −103.3
CS(=O)(=O)Nc1cccc(-c2ccc3c(c2)C(N)=Nc2cc(OC(F)(F)F)ccc2O3)c1 [NCGC00373124, N-(3-(11-Amino-8-(trifluoromethoxy)dibenzo[b,f][1,4]oxazepin-2-yl)phenyl)methanesulfonamide] | −87.5
CN1C(=O)c2cc(-c3cccc(NS(C)(=O)=O)c3)ccc2Oc2ccc(OC(F)(F)F)cc21 [NCGC00384233] | −75.1
CN1C(=O)c2ccc(-c3cccc(NS(C)(=O)=O)c3)cc2Oc2ccc(OC(F)(F)F)cc21 [NCGC00384234] | −54.1
CS(=O)(=O)Nc1cccc(-c2ccc3c(c2)Oc2ccc(OC(F)(F)F)cc2NC3=O)c1 [NCGC00384235, N-(3-(11-Oxo-8-(trifluoromethoxy)-10,11-dihydrodibenzo[b,f][1,4]oxazepin-3-yl)phenyl)methanesulfonamide] | −99.8
CN1C(=O)c2ccc(-c3cccc(N(C)S(C)(=O)=O)c3)cc2Oc2ccc(OC(F)(F)F)cc21 [NCGC00384267] | −48.4
CN1C(=O)c2cc(-c3cccc(N(C)S(C)(=O)=O)c3)ccc2Oc2ccc(OC(F)(F)F)cc21 [NCGC00384286, N-Methyl-N-(3-(10-methyl-11-oxo-8-(trifluoromethoxy)-10,11-dihydrodibenzo[b,f][1,4]oxazepin-2-yl)phenyl)methanesulfonamide] | −54.6
CS(=O)(=O)Nc1cccc(-c2ccc3c(c2)Oc2ccc(OC(F)(F)F)cc2C(=O)N3)c1 [NCGC00384295, N-(3-(11-Oxo-2-(trifluoromethoxy)-10,11-dihydrodibenzo[b,f][1,4]oxazepin-7-yl)phenyl)methanesulfonamide] | −80.6

Compound | Efficacy
CS(=O)(=O)Nc1cccc(-c2ccc3c(c2)Oc2cc(OC(F)(F)F)ccc2NC3=O)c1 [NCGC00384296, N-(3-(11-oxo-7-(trifluoromethoxy)-10,11-dihydrodibenzo[b,f][1,4]oxazepin-3-yl)phenyl)methanesulfonamide] | −73.3
N#CCCn1cc(-c2ccc3c(c2)C(=O)Nc2cc(OC(F)(F)F)ccc2O3)cn1 [NCGC00387293, 3-(4-(11-Oxo-8-(trifluoromethoxy)-10,11-dihydrodibenzo[b,f][1,4]oxazepin-2-yl)-1H-pyrazol-1-yl)propanenitrile] | −84.4
CC(C)(O)Cn1cc(-c2ccc3c(c2)C(=O)Nc2cc(OC(F)(F)F)ccc2O3)cn1 [NCGC00387294, 2-(1-(2-Hydroxy-2-methylpropyl)-1H-pyrazol-4-yl)-8-(trifluoromethoxy)dibenzo[b,f][1,4]oxazepin-11(10H)-one] | −82.3
CC(C)(CO)n1cc(-c2ccc3c(c2)C(=O)Nc2cc(OC(F)(F)F)ccc2O3)cn1 [NCGC00387295, 2-(1-(Hydroxy-2-methylpropan-2-yl)-1H-pyrazol-4-yl)-8-(trifluoromethoxy)dibenzo[b,f][1,4]oxazepin-11(10H)-one] | −87.7
O=C1Nc2cc(OC(F)(F)F)ccc2Oc2ccc(-c3cnn(CCN4CCOCC4)c3)cc21 [NCGC00387296, 2-(1-(2-Morpholinoethyl)-1H-pyrazol-4-yl)-8-(trifluoromethoxy)dibenzo[b,f][1,4]oxazepin-11(10H)-one] | −81.7
CN(C)CCn1cc(-c2ccc3c(c2)C(=O)Nc2cc(OC(F)(F)F)ccc2O3)cn1 [NCGC00387297, 2-(1-(2-(Dimethylamino)ethyl)-1H-pyrazol-4-yl)-8-(trifluoromethoxy)dibenzo[b,f][1,4]oxazepin-11(10H)-one] | −115.7
O=C1Nc2cc(OC(F)(F)F)ccc2Oc2ccc(-c3cnn(C4COC4)c3)cc21 [NCGC00387298, 2-(1-(Oxetan-3-yl)-1H-pyrazol-4-yl)-8-(trifluoromethoxy)dibenzo[b,f][1,4]oxazepin-11(10H)-one] | −93.8
COC(=O)c1ccc2c(c1)C(=O)Nc1cc(OC(F)(F)F)ccc1O2 [NCGC00387394] | 0.0
O=C1Nc2cc(OC(F)(F)F)ccc2Oc2ccc(-c3cnn(CCO)c3)cc21 [NCGC00387403, 2-(1-(2-Hydroxyethyl)-1H-pyrazol-4-yl)-8-(trifluoromethoxy)dibenzo[b,f][1,4]oxazepin-11(10H)-one] | −37.6
NC(=O)Cn1cc(-c2ccc3c(c2)C(=O)Nc2cc(OC(F)(F)F)ccc2O3)cn1 [NCGC00387404, 2-(4-(11-Oxo-8-(trifluoromethoxy)-10,11-dihydrodibenzo[b,f][1,4]oxazepin-2-yl)-11-pyrazol-1-yl)acetamide] | −8.8
O=C1Nc2cc(OC(F)(F)F)ccc2Oc2ccc(B(O)O)cc21 [NCGC00387437, (11-Oxo-8-(trifluoromethoxy)-10,11-dihydrodibenzo[b,f][1,4]oxazepin-2-yl)boronic acid] | −82.6
O=C(O)c1ccc2c(c1)C(=O)Nc1cc(OC(F)(F)F)ccc1O2 [NCGC00387752] | 0.0
O=C1Nc2cc(OC(F)(F)F)ccc2Oc2ccc(-c3ccc(CN4CCOCC4)s3)cc21 [NCGC00388536, 2-(5-(Morpholinomethyl)thiophen-2-yl)-8-(trifluoromethoxy)dibenzo[b,f][1,4]oxazepin-11(10H)-one] | −83.1
NCc1ccc(-c2ccc3c(c2)C(=O)Nc2cc(OC(F)(F)F)ccc2O3)s1 [NCGC00388547, 2-(5-(Aminomethyl)thiophen-2-yl)-8-(trifluoromethoxy)dibenzo[b,f][1,4]oxazepin-11(10H)-one] | −91.7
CC(=O)NCc1ccc(-c2ccc3c(c2)C(=O)Nc2cc(OC(F)(F)F)ccc2O3)s1 [NCGC00388557, N-((5-(11-Oxo-8-(trifluoromethoxy)-10,11-dihydrodibenzo[b,f][1,4]oxazepin-2-yl)thiophen-2-yl)methyl)acetamide] | −81.9
O=C1Nc2cc(OC(F)(F)F)ccc2Oc2ccc(-c3ccc(CN4CCNCC4)s3)cc21 [NCGC00388560, 2-(5-(Piperazin-1-ylmethyl)thiophen-2-yl)-8-(trifluoromethoxy)dibenzo[b,f][1,4]oxazepin-11(10H)-one] | −95.0
CC(=O)c1csc(-c2ccc3c(c2)C(=O)Nc2cc(OC(F)(F)F)ccc2O3)c1 [NCGC00388580, 2-(4-Acetylthiophen-2-yl)-8-(trifluoromethoxy)dibenzo[b,f][1,4]oxazepin-11(10H)-one] | −92.6
N#CCn1cc(-c2ccc3c(c2)C(=O)Nc2cc(OC(F)(F)F)ccc2O3)cn1 [NCGC00388626, 2-(4-(11-Oxo-8-(trifluoromethoxy)-10,11-dihydrodibenzo[b,f][1,4]oxazepin-2-yl)-1H-pyrazol-1-yl)acetonitrile] | −34.8
O=C1Nc2cc(OC(F)(F)F)ccc2Oc2ccc(CCB(O)O)cc21 [NCGC00390141, (2-(11-Oxo-8-(trifluoromethoxy)-10,11-dihydrodibenzo[b,f][1,4]oxazepin-2-yl)ethyl)boronic acid] | −45.8
